In US10543286B2, “Methods for increasing platelet count by inhibiting biliverdin IXβ reductase” (The Research Foundation for The State University of New York, priority 2015, dated 2020) one finds EC50 and IC50 data, which are given here for two compounds.

For experiment [1], the system named is control or iPSC/BLVRB^S111L cells (NCRM1 iPSCs). Briefly: TBHP-induced ROS accumulation in genetically-modified iPSCs (CellROX Green, flow cytometry). The following applies: Homo sapiens, 1 hour at 37° C., read-out: concentration causing ROS accumulation in 50% of cells (EC50). The experiment is classed as cell-based. Here is the method:
FIG. 3i is a bar graph showing ROS expression by genetically-modified NCRM1 iPSCs. About 1×10^5, cells were labeled as in FIG. 2h, and treated (or not) with 200 μM tert-butyl hydroperoxide (TBHP) for 1 hour at 37° C., and ROS-expressing cells were quantitated by flow cytometry after a 60 minute period loading with cell-permeable CellROX Green (500 nM) as indicator (N=6); p-values *<0.05; **<0.01; ***<0.001; ****<0.0001. From left to right, the bars correspond to activity in control cells, activity in cells having BLVRB^WT, and activity in cells having BLVRB^S111L.
Hematopoietic-derived (CD34^+) induced pluripotent stein cells (iPSC) expressing endogenous BLVRB were initially developed as heterozygous models designed to phenocopy zygosity state in subject cohorts. […]
Human CD34^+-derived NCRM1 induced pluripotent stem cells (iPSC) were genetically modified using lentivirus infection (MOI 9) for generation of stable cell lines after puromycin selection (iPSC/BLVRB^S111L, iPSC/BLVRB^WT, iPSC/Control). Oxidation/reduction activity was quantified in vitro using the NADPH-dependent redox coupler resazurin; cells (4×10^4/well) were plated and propagated in mTeSR1 medium and at 24 hours were incubated with resazurin (0.1 v/v) followed by serial spectrofluorimetric detection (530 nm excitation, 590 nm emission) for the reduced resorufin byproduct. […]
(In general: A flow cytometer gives signals particle by particle.)

Experiment [2] has as its target T1, biliverdin IX beta reductase (BLVRB) (Homo sapiens, UniProt P30043).
T1 construct: BLVRBWT and BLVRBS111L open reading frames were PCR-amplified and directionally-cloned into pGEX-KG expression vector; GST (N, cleaved yes); made in house; LB medium, IPTG induction
T1 sequence (P30043 1-206): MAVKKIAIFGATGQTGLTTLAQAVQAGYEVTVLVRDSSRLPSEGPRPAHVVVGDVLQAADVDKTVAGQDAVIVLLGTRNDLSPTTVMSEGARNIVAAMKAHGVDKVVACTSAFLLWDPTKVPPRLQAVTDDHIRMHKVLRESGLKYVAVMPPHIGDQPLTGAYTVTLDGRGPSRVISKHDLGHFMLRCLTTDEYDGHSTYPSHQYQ
Briefly: BLVRB flavin reductase inhibition assay (FMN/NADPH, absorbance at 340 nm). The settings on record: 300 nM recombinant BLVRB, 200 μM FMN, 100 μM NADPH, 100 mM potassium phosphate pH 7.6, 37° C.; read-out: IC50, concentration of inhibitor needed to inhibit the target enzyme by 50% (flavin reductase activity of BLVRB). The experiment is classed as biochemical. As to the method:
In one embodiment, the agent is a. chemical compound. An example of such a compound is described in Example 7. Inhibition of enzyme activity by the compound was tested in a reaction containing 100 mM potassium phosphate, pH 7.6, 200 μM FMN (flavin mononucleotide), 100 μM NADPH.
Reactions were initiated by the addition of 300 nM recombinant BLVRB. Enzymatic activity was monitored by following the decrease in absorbance at 340 nm which corresponds to the oxidation of NADPH to NADP^+. […] (FIG. 9)

Turning to `CC(C)(C)OO` [TBHP, tert-butyl hydroperoxide], the EC50 in experiment [1] stood at 200 µM.

For `COc1ccc2nc3cc(Cl)ccc3c(Nc3ccc(O)c(CN4CCN(C)CC4)c3)c2c1` [compound 1301], the IC50 in experiment [2] came to 30.7 µM.
